Measurements reported in article PMC7803973, “Structural basis of malaria parasite phenylalanine tRNA-synthetase inhibition by bicyclic azetidines” (Nature Communications, 2021).
Several values for one entry are separate records, joined by “and”; a condition that tells them apart may be missing. Identical values can stand only once. Entries after “also recorded” stand apart in the source; their conditions may differ.

What was measured:
PfcFRS = target: T1, PfcFRS (Plasmodium falciparum, UniProt Q8I246); test: PfcFRS mode of inhibition study (malachite green); type: biochemical; details: for 1/v (0.5 × IC50 ): inhibitor 0.5 × IC50; for 1/V (1 × IC50 ) / 1/v (1 × IC50 ): inhibitor 1 × IC50
T1 sequence (Q8I246 1-575): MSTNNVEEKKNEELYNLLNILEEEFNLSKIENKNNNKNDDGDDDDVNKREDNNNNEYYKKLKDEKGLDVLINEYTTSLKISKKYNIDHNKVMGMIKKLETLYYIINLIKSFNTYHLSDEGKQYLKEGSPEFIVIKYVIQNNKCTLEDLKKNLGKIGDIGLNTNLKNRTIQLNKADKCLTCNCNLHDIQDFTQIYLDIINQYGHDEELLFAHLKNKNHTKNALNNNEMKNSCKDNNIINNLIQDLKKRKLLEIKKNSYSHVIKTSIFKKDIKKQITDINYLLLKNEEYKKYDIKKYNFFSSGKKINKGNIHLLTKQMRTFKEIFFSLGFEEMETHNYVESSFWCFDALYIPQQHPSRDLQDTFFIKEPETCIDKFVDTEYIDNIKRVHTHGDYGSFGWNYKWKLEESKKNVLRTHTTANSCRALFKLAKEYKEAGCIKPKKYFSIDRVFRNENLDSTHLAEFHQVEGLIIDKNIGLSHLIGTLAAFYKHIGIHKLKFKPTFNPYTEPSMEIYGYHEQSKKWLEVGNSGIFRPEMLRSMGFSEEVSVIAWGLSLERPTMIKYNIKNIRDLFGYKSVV
T1 sequence (Q8IIW2 1-623 partner): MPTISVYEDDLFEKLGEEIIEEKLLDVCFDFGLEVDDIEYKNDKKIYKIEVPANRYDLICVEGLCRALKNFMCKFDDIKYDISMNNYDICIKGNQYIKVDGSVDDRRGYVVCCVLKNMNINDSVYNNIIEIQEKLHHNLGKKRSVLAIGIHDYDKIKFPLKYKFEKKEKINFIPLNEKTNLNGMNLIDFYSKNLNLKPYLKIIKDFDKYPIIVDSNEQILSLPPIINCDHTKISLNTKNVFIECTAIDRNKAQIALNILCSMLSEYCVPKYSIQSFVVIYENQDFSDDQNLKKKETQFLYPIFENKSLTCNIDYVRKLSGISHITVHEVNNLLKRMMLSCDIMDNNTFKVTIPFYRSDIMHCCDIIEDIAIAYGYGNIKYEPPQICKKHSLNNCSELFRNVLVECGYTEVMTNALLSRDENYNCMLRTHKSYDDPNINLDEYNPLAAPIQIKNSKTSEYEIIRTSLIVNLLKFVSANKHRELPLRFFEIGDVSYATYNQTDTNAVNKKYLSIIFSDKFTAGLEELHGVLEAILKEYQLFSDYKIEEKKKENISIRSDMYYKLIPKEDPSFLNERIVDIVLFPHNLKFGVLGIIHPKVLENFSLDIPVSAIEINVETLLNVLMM
Experimental: These were done using malachite green assay as per earlier published reports[1],[6]. Briefly, the reaction was performed for 100 µM ATP, 50 µM L-phenylalanine and 100 nM recombinant PheRS enzymes (Pf, Pv, Hs, Pf mutant (L550V)) in a buffer containing 30 mM HEPES (pH 7.5), 150 mM, NaCl, 30 mM KCl, 50 mM, MgCl2, 1 mM DTT, and 2 U/ml E. coli inorganic pyrophosphatase (NEB) at 37 °C. Enzymatic reactions (50 μl total volume) were performed in clear, flat-bottomed, 96-well plates (Costar 96-well standard microplates). The reaction mixture was incubated for 2 h at 37 °C. The reaction was stopped by adding 12.5 μl of malachite green solution to the reaction mixture and levels of inorganic phosphate (Pi) were detected after incubation of 5 min at room temperature. Absorbance was the measured at 620 nm using a Spectramax M2 (Molecular Devices). Reactions without FRS enzyme were performed as background controls, values of which were subtracted from the reactions with enzyme. BRD1389 was added to our aminoacylation assay reaction buffer in varying concentrations ranging from 0.1 nM to 10,000 nM. The IC50 value for the data is shown for three replicates as the mean ± SD.
To establish the mode of inhibition of BRD1389, data sets (generated using the malachite Green assay platform as described in the above enzyme inhibition assays method section) were collected by varying both the inhibitor and substrate concentrations.

[1] = test system: Plasmodium falciparum strain K1; test: microbe, parasite or virus in culture; type: cell-based
Experimental: The cultivation of P. falciparum was conducted according to Trager’s method with some modification. Precisely, parasites were kept in culture flasks with RPMI1640 medium supplemented with 10% human plasma and 2% fresh human erythrocytes and incubated at 37 °C with the gas condition of 5% CO2 and 5% O2. The parasitemia (percentage of infected erythrocytes to total erythrocytes) were kept within 0.25–10%. Culture medium was replaced, and fresh erythrocytes were supplied every 2–3 days. Drug susceptibility test was conducted according to Desjardins’s method[18] with some modification. […] […] The plates were kept at 37 °C with the gas condition of 5% CO2 and 5% O2 for 72 h and then parasite growth was quantified with Makler’s method to detect plasmdoial lactate dehydrogenase[19] with some modification. Precisely, culture plates were kept in freezer overnight and then thawed at 37 °C to disrupt the erythrocytes and parasite cells. In the new 96-well titer plates, 100 μl of enzyme reaction solution (110 mM Li-lactate, 0.5 mM acetylpyridine-adenine dinucleotide, 50 mM Tris (pH 7.5), 10 mM EDTA, 50 mM KCl, and 15 g l^−1 PEG6000) and 20 µl of freeze-thaw culture were mixed in each well and then kept at room temperature for 30 min. The detection solution was prepared by mixing equal volume of 2 mg ml^−1 nitro blue tetrazolium and 0.1 mg ml^−1 phenazine ethosulfate and 20 µl of the solution was added to each well.

[2] = ATP 15.6 uM, saturating L-Phe 1000 μM
[3] = ATP 31.25 uM, saturating L-Phe 1000 μM
[4] = ATP 62.5 uM, saturating L-Phe 1000 μM
[5] = ATP 125 uM, saturating L-Phe 1000 μM
[6] = ATP 250 uM, saturating L-Phe 1000 μM
[7] = ATP 500 uM, saturating L-Phe 1000 μM
[8] = L-Phe 0.015625 mM, saturating ATP 500 μM
[9] = L-Phe 0.031 mM, saturating ATP 500 μM
[10] = L-Phe 0.0625 mM, saturating ATP 500 μM
[11] = L-Phe 0.125 mM, saturating ATP 500 μM
[12] = L-Phe 0.25 mM, saturating ATP 500 μM
[13] = L-Phe 0.5 mM, saturating ATP 500 μM
[14] = L-Phe 1 mM, saturating ATP 500 μM

Compound: COC[C@@H]1[C@H](c2ccc(C#Cc3ccccc3)cc2)[C@@H]2CN(C(=O)Nc3ccc(OC4CC4)cc3)C[C@@H](O)[C@@H](O)CN12 [BRD1389]
- Ki (PfcFRS; ATP varied, L-Phe saturating, non-competitive inhibition model): 10 ± 5 nM
- Ki (PfcFRS; L-Phe varied, ATP constant, global competitive inhibition model): 6 ± 2 nM
- Mode of inhibition with respect to ATP (PfcFRS; PfcFRS, ATP varied at saturating L-Phe): non-competitive inhibition; also recorded: likely a non-competitive inhibitor
- Mode of inhibition with respect to L-Phe (PfcFRS; PfcFRS, L-Phe varied at saturating ATP): competitive inhibition; also recorded: competitive inhibitor
- 1/v (0.5 × IC50 ) (PfcFRS; [2]): 50.7634
- 1/v (0.5 × IC50 ) (PfcFRS; [3]): 35.2611
- 1/v (0.5 × IC50 ) (PfcFRS; [4]): 25.2226
- 1/v (0.5 × IC50 ) (PfcFRS; [5]): 18.8398
- 1/v (0.5 × IC50 ) (PfcFRS; [6]): 16
- 1/v (0.5 × IC50 ) (PfcFRS; [7]): 13.77
- 1/v (0.5 × IC50 ) (PfcFRS; [8]): 19.05
- 1/v (0.5 × IC50 ) (PfcFRS; [9]): 12.5
- 1/v (0.5 × IC50 ) (PfcFRS; [10]): 10
- 1/v (0.5 × IC50 ) (PfcFRS; [11]): 8.3
- 1/v (0.5 × IC50 ) (PfcFRS; [12]): 7.2
- 1/v (0.5 × IC50 ) (PfcFRS; [13]): 6.5
- 1/v (0.5 × IC50 ) (PfcFRS; [14]): 6.2
- 1/V (1 × IC50 ) (PfcFRS; [2]): 66.6667
- 1/V (1 × IC50 ) (PfcFRS; [3]): 44.4444
- 1/V (1 × IC50 ) (PfcFRS; [4]): 40.1698
- 1/V (1 × IC50 ) (PfcFRS; [5]): 25.8
- 1/V (1 × IC50 ) (PfcFRS; [6]): 20
- 1/V (1 × IC50 ) (PfcFRS; [7]): 13.7741
- 1/v (1 × IC50 ) (PfcFRS; [8]): 30
- 1/v (1 × IC50 ) (PfcFRS; [9]): 18.03
- 1/v (1 × IC50 ) (PfcFRS; [10]): 12
- 1/v (1 × IC50 ) (PfcFRS; [11]): 9
- 1/v (1 × IC50 ) (PfcFRS; [12]): 8
- 1/v (1 × IC50 ) (PfcFRS; [13]): 7.2
- 1/v (1 × IC50 ) (PfcFRS; [14]): 7
- % Parasite Growth ([1]; K1, 0.000976562 ug/mL): 92.8%
- % Parasite Growth ([1]; K1, 0.00195312 ug/mL): 94.4%
- % Parasite Growth ([1]; K1, 0.00390625 ug/mL): 90.7%
- % Parasite Growth ([1]; K1, 0.0078125 ug/mL): 40.5%
- % Parasite Growth ([1]; K1, 0.015625 ug/mL): 14.2%
- % Parasite Growth ([1]; K1, 0.03125 ug/mL): 15.9%
- % Parasite Growth ([1]; K1, 0.0625 ug/mL): 4.7%
- % Parasite Growth ([1]; K1, 0.125 ug/mL): 2.9%
- % Parasite Growth ([1]; K1, 0.25 ug/mL): 2.1%
- % Parasite Growth ([1]; K1, 0.5 ug/mL): 2.6%
- % Parasite Growth ([1]; K1, 1 ug/mL): 2.6%
- IC50 ([1]; Plasmodium falciparum, K1): 0.00685 µg/mL and 12.1 nM
- EC50 ([1]; Plasmodium falciparum, K1, 72 h): 12 nM
